Here are results for two molecules from article PMC8070144, “The YfkO Nitroreductase from Bacillus Licheniformis on Gold-Coated Superparamagnetic Nanoparticles: Towards a Novel Directed Enzyme Prodrug Therapy Approach” (Pharmaceutics, 2021).

Broadly, the Km is the concentration of substrate that gives half-maximal velocity.

The structures appear in SMILES notation.

Assay [1] concerns the target T1, NfnB-cys (Escherichia coli, UniProt P38489).
T1 construct: gene nfsB; recombinant, pET28a(+) in E. coli Rosetta BL21(DE3) (printed B21 DE3); N-terminal Cys tag and His tag kept; Ni IMAC, FMN-saturated, PD10 desalted
The assay is described as follows: UV-Vis spectra with time, NADH oxidation at […] nm. It counts as biochemical. Conditions: free enzyme; CB1954 100 µM; 50 mM phosphate pH 7.2; methods print NADPH, results print NADH.

The subject of another assay is T2, YfkO-cys.
T2 construct: recombinant, pET28a(+) in E. coli Rosetta BL21(DE3) (printed B21 DE3); N-terminal Cys tag and His tag kept; Ni IMAC, FMN-saturated, PD10 desalted
In words: absorbance at […] nm, hydroxylamine product formation, plate reader. The assay is classed as biochemical, Bacillus licheniformis. The conditions noted are these: free enzyme; NADH 400 µM; 50 mM phosphate pH 7.2; 37 °C; CB1954 0.1-10 mM.

The target of assay [2] is T1, NfnB-cys. The assay is described as follows: UV-Vis spectra with time, product at […] nm. It counts as biochemical. Conditions: free enzyme; CB1954 100 µM; 50 mM phosphate pH 7.2; cofactor NADH in results (NADPH 300 µM in methods).

T1 sequence (P38489 whole entry): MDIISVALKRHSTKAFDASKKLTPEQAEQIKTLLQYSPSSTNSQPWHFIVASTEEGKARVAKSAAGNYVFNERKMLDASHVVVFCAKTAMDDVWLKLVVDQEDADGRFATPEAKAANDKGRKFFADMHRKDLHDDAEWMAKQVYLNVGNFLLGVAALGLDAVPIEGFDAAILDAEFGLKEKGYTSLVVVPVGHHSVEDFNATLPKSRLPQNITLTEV

For the molecule `NC(=O)C1=CN([C@@H]2O[C@H](COP(=O)(O)OP(=O)(O)OC[C@H]3O[C@@H](n4cnc5c(N)ncnc54)[C@H](O)[C@@H]3O)[C@@H](O)[C@H]2O)C=CC1` [NADH], on NfnB-cys [1], the “UV-Vis spectra with time, NADH oxidation at 340 nm” value was “scans obtained for NfnB-cys, free and immobilised, were almost identical to these”. In the case of `NC(=O)c1cc(N2CC2)c([N+](=O)[O-])cc1[N+](=O)[O-]` [compound 1, 5-(aziridin-1-yl)-2,4-dinitrobenzamide], the Km in the assay with YfkO-cys was found to be 830 ± 250 µM. At NfnB-cys [2], the “UV-Vis spectra with time, product at 420 nm” value is “scans obtained for NfnB-cys, free and immobilised, were almost identical to these”.
